Source: patent publication US10669258B2, “3-sulfonyl-5-aminopyridine-2,4-diol APJ agonists” (BRISTOL-MYERS SQUIBB COMPANY, priority 2016, dated 2020)
Where two headings read alike, the source gives them in different places.

Biological target: T1, human APJ receptor (Homo sapiens, UniProt P35414)
T1 construct: expressed in transfected cells; host or cells: HEK293
T1 sequence (P35414 1-380): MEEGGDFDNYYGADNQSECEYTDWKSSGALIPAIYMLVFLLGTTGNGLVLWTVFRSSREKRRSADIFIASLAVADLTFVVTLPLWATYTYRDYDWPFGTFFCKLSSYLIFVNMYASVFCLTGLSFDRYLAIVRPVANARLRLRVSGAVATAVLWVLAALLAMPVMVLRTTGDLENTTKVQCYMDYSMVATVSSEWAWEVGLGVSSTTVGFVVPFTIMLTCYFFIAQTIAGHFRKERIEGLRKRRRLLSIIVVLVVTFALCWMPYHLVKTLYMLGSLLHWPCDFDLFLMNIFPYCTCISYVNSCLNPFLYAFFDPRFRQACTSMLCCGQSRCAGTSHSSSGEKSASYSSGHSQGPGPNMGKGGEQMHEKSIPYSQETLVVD
Assay: Intracellular cAMP accumulation assay (APJ hcAMP, HTRF)
Assay type: cell-based
Details: HEK293 cells stably expressing human APJ receptor, inhibition of forskolin-mediated cAMP production
Summary of the method: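 HEK293 cells stably expressing the receptor (5,000/well) treated with compound plus […] and 2 μM forskolin for 30 min at room temperature; cAMP by HTRF against a cAMP standard curve. EC50 from variable-slope sigmoidal fit; Ymax as % of (Pyr1)apelin-13 inhibition.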

[1] = Table 1, read-out: hAPJ cAMP EC50 Potency range

| EC50 (read-out: Human APJ cAMP Potency range) [nM] | EC50 [1] [nM] | SMILES |
| --- | --- | --- |
| 0.01 to 10 |  | CCCCc1nc(O)c(C(=O)N2CCC(c3ncc(F)cc3F)C2)c(O)c1N(C)c1ccccc1F (stereo not drawn) [Example 006, (6-butyl-5-((2-fluorophenyl)(methyl)amino)-2,4-dihydroxypyridin-3-yl)(3-(3,5-difluoropyridin-2-yl)pyrrolidin-1-yl)methanone] |
|  | 0.01 to 10 | CCCCc1nc(O)c(S(=O)(=O)c2ccc(-c3ccccc3C(=O)NC)cc2)c(O)c1N1CCCOc2ccccc21 [Example 146, 4′-((6-butyl-5-(3,4-dihydrobenzo[b][1,4]oxazepin-5(2H)-yl)-2,4-dihydroxypyridin-3-yl)sulfonyl)-N-methyl-[1,1′-biphenyl]-2-carboxamide] |
|  | 0.01 to 10 | CCN(c1ccccc1)c1c(-c2cnc(C)s2)nc(O)c(S(=O)(=O)c2ccc(-c3ccccc3C(=O)NC)cc2)c1O [Example 192, 4′-((5-(ethyl(phenyl)amino)-2,4-dihydroxy-6-(2-methylthiazol-5-yl)pyridin-3-yl)suflonyl)-N-methyl-[1,1′-biphenyl]-2-carboxamide] |
|  | 0.01 to 10 | CCCCc1nc(O)c(S(=O)(=O)c2ccc(-c3ccncc3C)cc2)c(O)c1N(C)c1ccccc1C [Example 203, 6-butyl-5-(methyl(o-tolyl)amino)-3-((4-(3-methypyridin-4-yl)phenyl)sulfonyl)pyri-dine-2,4-diol] |
|  | 10 to 100 | CCCCc1nc(O)c(S(=O)(=O)c2ccc(-c3ccc(F)nc3C)cc2)c(O)c1N(C)c1cccc(Cl)c1 [Example 105, 6-butyl-5-((3-chlorophenyl)(methyl)amino)-3-((4-(6-fluoro-2-methylpyridin-3-yl)phenyl)sulfonyl)pyridine-2,4-diol] |
|  | 0.01 to 10 | CCN(c1ccccc1)c1c(-c2cnn(C)c2)nc(O)c(S(=O)(=O)c2ccc(-c3ccncc3C)cc2)c1O [Example 156, 5-(ethyl(phenyl)amino)-6-(1-methyl-1H-pyraozl-4-yl)-3-((4-(3-methylpyridin-4-yl)phenyl)sulfonyl)pyri-dine-2,4-diol] |
|  | 0.01 to 10 | CCN(c1ccccc1)c1c(-c2ccn(C)n2)nc(O)c(S(=O)(=O)c2ccc(-c3ccnc(F)c3C)cc2)c1O [Example 063, 5-(ethyl(phenyl)amino)-3-((4-(2-fluoro-3-methylpyridin-4-yl)phenyl)sulfonyl)-6-(1-methyl-1H-pyrazol-3-yl)pyridine-2,4-diol] |
|  | 0.01 to 10 | CCCCc1nc(O)c(S(=O)(=O)c2ccc(-c3ccnc(OC)c3)cc2)c(O)c1N(CC)c1ccccc1 [Example 081, 6-butyl-5-(ethyl(phenyl)amino)-3-((4-(2-methoxypyridin-4-yl)phenyl)sulfonyl)pyridine-2,4-diol] |
|  | 0.01 to 10 | Cc1c(-c2ccc(S(=O)(=O)c3c(O)nc(-c4ccn(C)n4)c(N(c4ccccc4)C(C)C)c3O)cc2)ccnc1F [Example 164, 3-((4-(2-fluoro-3-methylpyridin-4-yl)phenyl)sulfonyl)-5-(isopropyl(phen-yl)amino)-6-(1-methyl-1H-pyrazol-3-yl)pyridine-2,4-diol] |
|  | 0.01 to 10 | CCCCc1nc(O)c(C(=O)N2CC[C@@H](c3ccccc3)C2)c(O)c1N1CCC(C)c2ccccc21 (stereo partly drawn) [Example 045, (6-butyl-2,4-dihydroxy-5-(4-methyl-3,4-dihydroquinolin-1(2H)-yl)pyridin-3-yl)((S)-3-phenylpyrrolidin-1-yl)methanone] |
|  | 0.01 to 10 | CCCCc1nc(O)c(S(=O)(=O)c2ccc(-c3ccccc3C(N)=O)cc2)c(O)c1N(CC)c1cc(C)cc(C)c1 [Example 143, 4′-((6-butyl-5-((3,5-dimethylphenyl)(ethyl)amino)-2,4-dihydroxypyridin-3-yl)sulfonyl)-[1,1′-biphenyl]-2-carboxamide] |
|  | 0.01 to 10 | CCN(c1ccccc1)c1c(-c2cnn(C)c2)nc(O)c(S(=O)(=O)c2ccc(-c3ccc(F)cc3C(N)=O)cc2)c1O [Example 155, 4′-((5-(ethyl(phenyl)amino)-2,4-dihydroxy-6-(1-methyl-1H-pyrazol-4-yl)pyridin-3-yl)sulfonyl)-4-fluoro-[1,1′-biphenyl]-2-carboxamide] |
